Results as given in PubChem BioAssay (NCI).
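How tested: cells in 96-well plates exposed to compound for 48 hours at five concentrations. TGI marks complete inhibition of growth.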

Assays:
Assay in all cases: inhibition of tumour cell growth, NCI panel, 48 h
[1] = test system: BT-549 breast
[2] = test system: OVCAR-8 ovarian
[3] = test system: RXF 393 renal
[4] = test system: HT29 colon
[5] = test system: HCC-2998 colon
[6] = test system: U251 CNS
[7] = test system: A498 renal
[8] = test system: UACC-257 melanoma
[9] = test system: 786-0 renal
[10] = test system: SK-MEL-5 melanoma
[11] = test system: LOX IMVI melanoma
[12] = test system: OVCAR-4 ovarian
[13] = test system: K-562 leukemia
[14] = test system: NCI/ADR-RES ovarian
[15] = test system: NCI-H226 lung
[16] = test system: PC-3 prostate
[17] = test system: SF-539 CNS
[18] = test system: A549 NSCLC
[19] = test system: MDA-N
[20] = test system: HOP-92 NSCLC
[21] = test system: OVCAR-5 ovarian
[22] = test system: OVCAR-3 ovarian
[23] = test system: MOLT-4 leukemia
[24] = test system: MDA-MB-231 breast
[25] = test system: SW-620 colon
[26] = test system: HL-60(TB) leukemia
[27] = test system: IGROV1 ovarian
[28] = test system: MDA-MB-435
[29] = test system: EKVX NSCLC
[30] = test system: ACHN renal
[31] = test system: SK-MEL-2 melanoma
[32] = test system: MALME-3M melanoma
[33] = test system: MCF7 breast
[34] = test system: NCI-H460 lung
[35] = test system: CAKI-1 renal
[36] = test system: M14 melanoma
[37] = test system: DU-145 prostate
[38] = test system: UO-31 renal
[39] = test system: SN12C renal
[40] = test system: SK-MEL-28 melanoma
[41] = test system: SR leukemia
[42] = test system: HCT-116 colon
[43] = test system: NCI-H522 lung
[44] = test system: NCI-H23 lung
[45] = test system: UACC-62 melanoma
[46] = test system: RPMI-8226 leukemia
[47] = test system: COLO 205 colon
[48] = test system: KM12 colon
[49] = test system: SK-OV-3 ovarian
[50] = test system: HOP-62 NSCLC
[51] = test system: SF-295 CNS
[52] = test system: SNB-19 CNS
[53] = test system: CCRF-CEM leukemia
[54] = test system: SNB-75 CNS
[55] = test system: HCT-15 colon
[56] = test system: TK-10 renal
[57] = test system: SF-268 CNS
[58] = test system: T-47D breast

Q: With `Nc1ccc2c3c1cccc3c(=O)n1c3ccc(Cc4ccc5c(c4)nc4c6ccc(N)c7cccc(c(=O)n54)c76)cc3nc21` as the compound, how does the TGI [1] read?
A: > 100 µM

Q: What about the TGI [2] of the same compound?
A: > 100 µM

Q: What about the TGI [3] of the same compound?
A: > 100 µM

Q: And the TGI [4]?
A: > 100 µM

Q: And the TGI [5]?
A: > 100 µM

Q: And the TGI [6]?
A: > 100 µM

Q: And the TGI [7]?
A: > 100 µM

Q: And the TGI [8]?
A: > 100 µM

Q: And the TGI [9]?
A: > 100 µM

Q: And the TGI [10]?
A: > 100 µM

Q: What about the TGI [11] of the same compound?
A: > 100 µM

Q: What about the TGI [12] of the same compound?
A: > 100 µM

Q: And the TGI [13]?
A: > 100 µM

Q: What about the TGI [14] of the same compound?
A: > 100 µM

Q: And the TGI [15]?
A: > 100 µM

Q: And the TGI [16]?
A: > 100 µM

Q: What about the TGI [17] of the same compound?
A: > 100 µM

Q: What about the TGI [18] of the same compound?
A: > 100 µM

Q: What about the TGI [19] of the same compound?
A: > 100 µM

Q: And the TGI [20]?
A: > 100 µM

Q: And the TGI [21]?
A: > 100 µM

Q: And the TGI [22]?
A: > 100 µM

Q: What about the TGI [23] of the same compound?
A: > 100 µM

Q: And the TGI [24]?
A: > 100 µM

Q: What about the TGI [25] of the same compound?
A: > 100 µM

Q: What about the TGI [26] of the same compound?
A: > 100 µM

Q: And the TGI [27]?
A: > 100 µM

Q: What about the TGI [28] of the same compound?
A: > 100 µM

Q: And the TGI [29]?
A: > 100 µM

Q: And the TGI [30]?
A: > 100 µM

Q: And the TGI [31]?
A: > 100 µM

Q: What about the TGI [32] of the same compound?
A: > 100 µM

Q: And the TGI [33]?
A: > 100 µM

Q: And the TGI [34]?
A: > 100 µM

Q: What about the TGI [35] of the same compound?
A: > 100 µM

Q: What about the TGI [36] of the same compound?
A: > 100 µM

Q: What about the TGI [37] of the same compound?
A: > 100 µM

Q: What about the TGI [38] of the same compound?
A: > 100 µM

Q: What about the TGI [39] of the same compound?
A: > 100 µM

Q: What about the TGI [40] of the same compound?
A: > 100 µM

Q: And the TGI [41]?
A: > 100 µM

Q: And the TGI [42]?
A: > 100 µM

Q: And the TGI [43]?
A: > 100 µM

Q: What about the TGI [44] of the same compound?
A: > 100 µM

Q: What about the TGI [45] of the same compound?
A: > 100 µM

Q: What about the TGI [46] of the same compound?
A: > 100 µM

Q: What about the TGI [47] of the same compound?
A: > 100 µM

Q: And the TGI [48]?
A: > 100 µM

Q: What about the TGI [49] of the same compound?
A: > 100 µM

Q: What about the TGI [50] of the same compound?
A: > 100 µM

Q: And the TGI [51]?
A: > 100 µM

Q: What about the TGI [52] of the same compound?
A: > 100 µM

Q: What about the TGI [53] of the same compound?
A: > 100 µM

Q: What about the TGI [54] of the same compound?
A: > 100 µM

Q: Which results are given for `N#CC(c1cc(Cl)ncn1)c1nc2cc(C(F)(F)F)ccc2s1` (centres undefined)?
A: TGI [1]: 9.5 µM; TGI [2]: 13.5 µM; TGI [55]: 13.6 µM; TGI [3]: 19.7 µM; TGI [4]: 12.3 µM; TGI [6]: 17.1 µM; TGI [7]: 56.2 µM; TGI [8]: > 100 µM; TGI [9]: 13.4 µM; TGI [10]: 26.2 µM; TGI [11]: 11.8 µM; TGI [12]: 19.5 µM; TGI [13]: > 100 µM; TGI [14]: 9.5 µM; TGI [15]: 92 µM; TGI [17]: 20.9 µM; TGI [18]: > 100 µM; TGI [19]: 15.7 µM; TGI [20]: 5.92 µM; TGI [21]: 34.3 µM; TGI [22]: 17.4 µM; TGI [23]: > 100 µM; TGI [56]: > 100 µM; TGI [24]: 33.9 µM; TGI [25]: 17.8 µM; TGI [27]: 20.3 µM; TGI [28]: > 100 µM; TGI [29]: 32.3 µM; TGI [30]: 59.6 µM; TGI [32]: 17.5 µM; TGI [34]: > 100 µM; TGI [35]: > 100 µM; TGI [36]: 18.7 µM; TGI [37]: > 100 µM; TGI [38]: 17.8 µM; TGI [39]: > 100 µM; TGI [40]: 37.4 µM; TGI [42]: 8.9 µM; TGI [43]: 3.61 µM; TGI [44]: 6.97 µM; TGI [46]: > 100 µM; TGI [47]: 10.8 µM; TGI [48]: 18.7 µM; TGI [57]: 19.4 µM; TGI [58]: > 100 µM; TGI [49]: 53.7 µM; TGI [50]: 30.9 µM; TGI [51]: 29.2 µM; TGI [52]: 22.6 µM; TGI [54]: 25.4 µM
